# Test results published in PubChem BioAssay AID212 (DTP/NCI, 2004).
# Values joined by “and” are separate entries in the source; they are usually repeats but may differ in a detail not shown here. Equal values may be shown once. Inconclusive results are not listed. Where a SMILES comes first, the peptide text is derived from it. The star is where a group is joined. Trt = c1ccc(C(c2ccccc2)(c2ccccc2)*)cc1; Cbz = O=C(OCc1ccccc1)*
# Test system: BDF1 mice, colon carcinoma 38 sc, T/C %
# Assay: NCI In Vivo Anticancer Drug Screen. Data for tumor model Colon Carcinoma 38 (subcutaneous) in B6D2F1 (BDF1) mice
# Settings: endpoint: median tumor weight (est.), higher = larger tumour
# Outline: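 Compound antitumor activity was assessed in mice carrying transplantable tumors. Survival or tumor size was recorded, and each value is the treated-group measurement divided by that of the vehicle-treated control group.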
# [1] = dose: 100.0 mg/kg/injection, schedule: Q07DX002 (ip), vehicle: Klucel (hydroxypropylcellulose) (HPC)
# [2] = dose: 200.0 mg/kg/injection, schedule: Q07DX002 (ip), vehicle: Klucel (hydroxypropylcellulose) (HPC)
# [3] = dose: 12.5 mg/kg/injection, schedule: Q07DX002 (ip), vehicle: saline with Tween-80
compound,measurement,setting,value
NC1CCCCC1N.O=S(=O)([O-])CCCNC1CCCCC1.O=S(=O)([O-])CCCNC1CCCCC1.[Pt+4],T/C,"dose: 0.78 mg/kg/injection, schedule: Q07DX002 (ip), vehicle: saline",50 % of control
same,T/C,"dose: 1.56 mg/kg/injection, schedule: Q07DX002 (ip), vehicle: saline",38 % of control
same,T/C,"dose: 3.12 mg/kg/injection, schedule: Q07DX002 (ip), vehicle: saline",62 % of control
same,T/C,"dose: 6.25 mg/kg/injection, schedule: Q07DX002 (ip), vehicle: saline",25 % of control and 47 % of control
same,T/C,"dose: 12.5 mg/kg/injection, schedule: Q07DX002 (ip), vehicle: saline",14 % of control
O=C(Nc1ccc(Cl)c(Cl)c1)Nc1c(Oc2ccc(Cl)c(Cl)c2)ccc(Cl)c1S(=O)(=O)O,T/C,"dose: 6.25 mg/kg/injection, schedule: Q07DX002 (ip), vehicle: Klucel (hydroxypropylcellulose) (HPC)",167 % of control
same,T/C,"dose: 12.5 mg/kg/injection, schedule: Q07DX002 (ip), vehicle: Klucel (hydroxypropylcellulose) (HPC)",103 % of control
same,T/C,[1],119 % of control
same,T/C,[2],66 % of control
CC(C)[NH-].CC(C)[NH-].[Cl][Pt+2][Cl],T/C,"dose: 3.12 mg/kg/injection, schedule: Q07DX002 (ip), vehicle: dextrose",15 % of control
same,T/C,"dose: 3.13 mg/kg/injection, schedule: Q07DX002 (ip), vehicle: dextrose",122 % of control
same,T/C,"dose: 6.25 mg/kg/injection, schedule: Q07DX002 (ip), vehicle: dextrose",77 % of control
same,T/C,"dose: 6.25 mg/kg/injection, schedule: Q07DX002 (ip), vehicle: other",104 % of control
same,T/C,"dose: 12.5 mg/kg/injection, schedule: Q07DX002 (ip), vehicle: dextrose",71 % of control
same,T/C,"dose: 12.5 mg/kg/injection, schedule: Q07DX002 (ip), vehicle: other",53 % of control
same,T/C,"dose: 25.0 mg/kg/injection, schedule: Q07DX002 (ip), vehicle: dextrose",79 % of control and 88 % of control
same,T/C,"dose: 25.0 mg/kg/injection, schedule: Q07DX002 (ip), vehicle: other",84 % of control
same,T/C,"dose: 50.0 mg/kg/injection, schedule: Q07DX002 (ip), vehicle: dextrose",58 % of control and 71 % of control
same,T/C,"dose: 50.0 mg/kg/injection, schedule: Q07DX002 (ip), vehicle: other",122 % of control
same,T/C,"dose: 100.0 mg/kg/injection, schedule: Q07DX002 (ip), vehicle: other",52 % of control
C/C=C(\C)C(=O)OC1C(C)=C2C(C1OC(=O)CCCC)C(C)(OC(C)=O)CC(OC(=O)CCCC)C1(O)C2OC(=O)C1(C)O (stereo not given),T/C,"dose: 1.68 mg/kg/injection, schedule: Q07DX002 (ip), vehicle: Klucel (hydroxypropylcellulose) (HPC)",54 % of control
same,T/C,"dose: 3.37 mg/kg/injection, schedule: Q07DX002 (ip), vehicle: Klucel (hydroxypropylcellulose) (HPC)",87 % of control
same,T/C,"dose: 6.75 mg/kg/injection, schedule: Q07DX002 (ip), vehicle: Klucel (hydroxypropylcellulose) (HPC)",61 % of control
same,T/C,"dose: 13.5 mg/kg/injection, schedule: Q07DX002 (ip), vehicle: Klucel (hydroxypropylcellulose) (HPC)",105 % of control
O=c1[nH]cccc1O,T/C,"dose: 32.0 mg/kg/injection, schedule: Q07DX002 (ip), vehicle: saline with Tween-80",101 % of control
same,T/C,"dose: 62.0 mg/kg/injection, schedule: Q07DX002 (ip), vehicle: saline with Tween-80",177 % of control
same,T/C,"dose: 62.5 mg/kg/injection, schedule: Q07DX002 (ip), vehicle: saline with Tween-80",100 % of control
same,T/C,"dose: 64.0 mg/kg/injection, schedule: Q07DX002 (ip), vehicle: saline with Tween-80",76 % of control
same,T/C,"dose: 125.0 mg/kg/injection, schedule: Q07DX002 (ip), vehicle: saline with Tween-80",87 % of control
same,T/C,"dose: 128.0 mg/kg/injection, schedule: Q07DX002 (ip), vehicle: saline with Tween-80",94 % of control
same,T/C,"dose: 250.0 mg/kg/injection, schedule: Q07DX002 (ip), vehicle: saline with Tween-80",87 % of control
same,T/C,"dose: 256.0 mg/kg/injection, schedule: Q07DX002 (ip), vehicle: saline with Tween-80",58 % of control
same,T/C,"dose: 512.0 mg/kg/injection, schedule: Q07DX002 (ip), vehicle: saline with Tween-80",20 % of control
O=C(O)CC(NC(=O)CP(=O)(O)O)C(=O)O (stereo not given),T/C,"dose: 50.0 mg/kg/injection, schedule: Q07DX003 (ip), vehicle: saline",95 % of control
same,T/C,"dose: 51.8 mg/kg/injection, schedule: Q01DX004 (ip), vehicle: saline",102 % of control
same,T/C,"dose: 86.4 mg/kg/injection, schedule: Q01DX004 (ip), vehicle: saline",75 % of control
same,T/C,"dose: 119.0 mg/kg/injection, schedule: Q01DX009 (ip), vehicle: saline",34 % of control
same,T/C,"dose: 144.0 mg/kg/injection, schedule: Q01DX004 (ip), vehicle: saline",12 % of control
same,T/C,"dose: 178.0 mg/kg/injection, schedule: Q01DX009 (ip), vehicle: saline",12 % of control
same,T/C,"dose: 180.0 mg/kg/injection, schedule: Q04DX004 (ip), vehicle: saline",79 % of control
same,T/C,"dose: 200.0 mg/kg/injection, schedule: Q07DX003 (ip), vehicle: saline",115 % of control
same,T/C,"dose: 240.0 mg/kg/injection, schedule: Q01DX004 (ip), vehicle: saline",9 % of control
same,T/C,"dose: 300.0 mg/kg/injection, schedule: Q04DX004 (ip), vehicle: saline",75 % of control
same,T/C,"dose: 370.0 mg/kg/injection, schedule: Q07DX003 (ip), vehicle: saline",70 % of control
same,T/C,"dose: 400.0 mg/kg/injection, schedule: Q07DX003 (ip), vehicle: saline",75 % of control
same,T/C,"dose: 500.0 mg/kg/injection, schedule: Q04DX004 (ip), vehicle: saline",58 % of control
same,T/C,"dose: 552.0 mg/kg/injection, schedule: Q07DX003 (ip), vehicle: saline",40 % of control
same,T/C,"dose: 800.0 mg/kg/injection, schedule: Q07DX003 (ip), vehicle: saline",21 % of control
Cc1cnc(/C=N\NC(N)=S)c2cccc(N)c12,T/C,"dose: 6.25 mg/kg/injection, schedule: Q07DX002 (ip), vehicle: saline with Tween-80",110 % of control
same,T/C,"dose: 6.25 mg/kg/injection, schedule: Q07DX003 (ip), vehicle: saline with Tween-80",88 % of control
same,T/C,[3],69 % of control
same,T/C,"dose: 12.5 mg/kg/injection, schedule: Q07DX003 (ip), vehicle: saline with Tween-80",111 % of control
same,T/C,"dose: 25.0 mg/kg/injection, schedule: Q07DX003 (ip), vehicle: saline with Tween-80",122 % of control
same,T/C,"dose: 50.0 mg/kg/injection, schedule: Q07DX002 (ip), vehicle: saline with Tween-80",36 % of control and 57 % of control
same,T/C,"dose: 50.0 mg/kg/injection, schedule: Q07DX003 (ip), vehicle: saline with Tween-80",45 % of control
COC(=O)C(CSC(c1ccccc1)(c1ccccc1)c1ccccc1)NC(=O)C(CC(N)=O)NC(=O)OCc1ccccc1 (stereo not drawn) (Cbz-Asn-Cys(Trt)-OMe; configuration not given here),T/C,"dose: 25.0 mg/kg/injection, schedule: Q07DX002 (ip), vehicle: distilled water + Tween-80",95 % of control
same,T/C,"dose: 50.0 mg/kg/injection, schedule: Q07DX002 (ip), vehicle: distilled water + Tween-80",60 % of control
same,T/C,"dose: 100.0 mg/kg/injection, schedule: Q07DX002 (ip), vehicle: distilled water + Tween-80",95 % of control
same,T/C,"dose: 200.0 mg/kg/injection, schedule: Q07DX002 (ip), vehicle: distilled water + Tween-80",84 % of control and 88 % of control
same,T/C,"dose: 400.0 mg/kg/injection, schedule: Q07DX002 (ip), vehicle: distilled water + Tween-80",77 % of control
same,T/C,"dose: 800.0 mg/kg/injection, schedule: Q07DX002 (ip), vehicle: distilled water + Tween-80",56 % of control
CCSC(=O)N1c2ccc(OC)cc2C=CC1C#N (stereo not given),T/C,[3],70 % of control
same,T/C,"dose: 25.0 mg/kg/injection, schedule: Q07DX002 (ip), vehicle: saline with Tween-80",81 % of control
same,T/C,"dose: 100.0 mg/kg/injection, schedule: Q07DX002 (ip), vehicle: saline with Tween-80",107 % of control
same,T/C,"dose: 175.0 mg/kg/injection, schedule: Q07DX002 (ip), vehicle: saline with Tween-80",97 % of control
same,T/C,"dose: 350.0 mg/kg/injection, schedule: Q07DX002 (ip), vehicle: saline with Tween-80",115 % of control and 100 % of control
same,T/C,"dose: 400.0 mg/kg/injection, schedule: Q07DX002 (ip), vehicle: saline with Tween-80",61 % of control
same,T/C,"dose: 1400.0 mg/kg/injection, schedule: Q07DX002 (ip), vehicle: saline with Tween-80",75 % of control and 89 % of control
CN(C)CCCOC(=O)Cc1cccc2c(=O)cc(-c3ccccc3)oc12,T/C,[1],107 % of control
same,T/C,[2],81 % of control
